Patent US20070110726A1, “Rust disease control by Aphanocladium album and/or Beauveria brongniartii” (priority 2005, published 2007)
Starred links: 1 amine or outer side, 2 acyl side, 3 side chain; linkers in the order of their positions; H or OH if unused. Positions of bridges follow the written chain, without caps; N, C: chain ends. Non-standard residues stand in square brackets, D forms with d. Residues, ends and D or L forms follow the SMILES beside them. Chains are numbered I, II in the order given. Actinocin(9to1) = Cc1c2oc3c(C)ccc(C(=O)[*:1])c3nc-2c(C(=O)[*:2])c(N)c1=O; NMeV = CN[C@H](C(=O)O)C(C)C; Sar = CNCC(=O)O

Assays:
[1] = test system: strain NC of Puccinia coronata; assay: Greenhouse experiment, pure compound Oosporein sprayed on inoculated oat seedlings (telia induction); assay type: in vivo, Puccinia coronata on oat (cv. Brooks) seedlings; settings: table title strain NC (method text: strain MN); for Percentage of plants with telia: oat cv. Brooks seedlings, pure compound at 100 μg/ml applied four days after inoculation, mean of five replicates; for Telia intensity Rating: scale 0 = healthy to 3.0 = >15% of leaf area with telia, pure compound 100 μg/ml
Protocol: iv) Both crude extracts and fractions were tested at 10 mg/ml and the pure compound at 100 μg/ml
1.c. Greenhouse Experiments with the Pure Compound, Oosporein Isolated from of A. album (Aa 100 Isolate):
The pure compound (Oosporein) isolated from A. album (Aa 100) dissolved in 500 μl of DMSO and 9.5 ml of sterile distilled water (SDW) with 20 μl of Tween 80. The controls consisted of 500 μl of DMSO in 9.5 ml of SDW with 20 μl of Tween 80. and 10 ml of SDW with 20 μl of Tween 80. Ten ml of each treatment were atomized on 2-3 week-old, oat seedlings previously inoculated with strain MN of Puccinia coronata. Treatments were applied four days after inoculation when flecking symptoms of infection were present, but before uredia were observed (FIG. 1). There were five replicates of each treatment arranged in a randomized complete block design.

[2] = test system: K-562 cells; assay: MTS cytotoxicity assay; assay type: cell-based; settings: 3 days exposure
Source text: di-Methylthiozol Tetrazolium (MTT assay): Proliferation assays are used in cell biology for the study of growth factors, cytokines and cytotoxic agents. There are several ways to measure the number of cells in a proliferation assay. MTT assay is a rapid and convenient method of determining viable cells in proliferation, cell attachment, chemotaxis and apoptosis assays.
di-Methylthiozol Tetrazolium Salt (MTS assay): MTS assay is a rapid and convenient method of determining viable cells in proliferation or cytotoxic assays. The use of this analog of MTT, provides a stable reaction over time. MTS assay is based on the cellular conversion of a tetrazolium salt into a formozan product that is soluble in tissue culture media and can easily be detected using a 96-well plate reader. This conversion is presumably accomplished by NADPH or NADH produced by dehydrogenases enzymes present in metabolically active cells. MTS is preferred over MTT because the MTS formazan product is soluble in tissue culture medium. In addition the MTS assay require fewer steps than MTT assay. Consequently, we have used MTS for our testing. MTS assay-Method: K-562 (typical cancer cell line used for cytotoxicity assays) cells were seeded in 96-well plates at a concentration of 2.5×10^4 cells/ml. Oosporein and Actinomycin D (a known cytotoxic compound) were prepared in 10% DMSO and added to cells the next day (final DMSO concentration was 0.5%). Oosporein was assessed at a final concentration on the cells of 100, 50, 25, 12.5, 6.25 and 3.125 μg/ml (2-fold dilutions) in quadruplicate. A known toxic agent, Actinomycin D, was added at 100, 20, 4, 0.8 and 0.16 ng/ml (5-fold dilutions). After 3 days exposure to test compound or controls, MTS reagent was prepared and added to the cells. After 3 hours, the accumulation of formazan product was determined by measuring the absorbance at 490 nm. The background absorbance of the cells detected at 630 nm was then subtracted from the initial 490 nm reading. Percent toxicity was determined using the following formula: [formula] [formula] […]

[3] = test system: rusts; assay: Conversion of infective urediniospores to non-infective teliospores in rusts

| SMILES | Percentage of plants with telia [1] | Percentage of plants with telia ([1]; listed as Ooosporein) | Telia intensity Rating [1] | Telia intensity Rating ([1]; listed as Ooosporein) | toxicity on K-562 cells ([2]; 25 μg/ml or less) | toxicity on K-562 cells ([2]; 100 and 50 μg/ml) | time to conversion of infective urediniospores to non-infective teliospores ([3]; after application) | conversion of infective urediniospores to non-infective teliospores ([3]; oat, bareley, wheat, pine and soybean rust) | Percent toxicity on K-562 cells ([2]; 100 ng/ml) |
| --- | --- | --- | --- | --- | --- | --- | --- | --- | --- |
| CC1=C(O)C(=O)C(C2=C(O)C(=O)C(C)=C(O)C2=O)=C(O)C1=O [Oosporein] | 83% | higher percentage of plants with telia | 8.2 | greater intensity of telia | no toxicity whatsoever | very mild toxicity | with in three days of application | convert infective urediniospores to non-infective teliospores | – |
| Cc1c2oc3c(C)ccc(C(=O)N[C@@H]4C(=O)N[C@H](C(C)C)C(=O)N5CCC[C@H]5C(=O)N(C)CC(=O)N(C)[C@@H](C(C)C)C(=O)O[C@@H]4C)c3nc-2c(C(=O)N[C@@H]2C(=O)N[C@H](C(C)C)C(=O)N3CCC[C@H]3C(=O)N(C)CC(=O)N(C)[C@@H](C(C)C)C(=O)O[C@@H]2C)c(N)c1=O [Actinomycin D, reference compound] (I: T[dV]P[Sar][NMeV] / II: T[dV]P[Sar][NMeV]; ester I:1-I:C, II:1-II:C; linker I:N-II:N via Actinocin(9to1)) | – | – | – | – | – | – | – | – | ~100% |
